Results reported in paper PMC7369900 (International Journal of Molecular Sciences, 2020).
Converted amounts (≈) assume the structure as drawn.

How the values were obtained:
HEK 293 [1] = experiment: cells; type: cell-based, human; conditions: HEK 293, 72 h, MTT
Method: (§1) Among the conjugates, LVXC-S-S-CTP10-NH2 (5) was the least cytotoxic. […] In the case of HEK 293 and LLC-PK1 cells, the IC50 values of 5 were nearly four times higher. […] Additionally, we noted that the cancer cells Hep G2 were less sensitive to the action of the given compounds than the non-cancer cells (HEK 293 and LLC-PK1).
(§2) Cytotoxicity was assessed against three mammalian cell lines: LLC-PK1, Hep G2, and HEK 293. Multiwell (96–well) plates were seeded at 7000 cells/well in Medium 199 supplemented with 7.5% FBS, MEM Eagle’s medium supplemented with 10% FBS, or DMEM medium supplemented with 10% FBS, respectively. All media were supplemented with L-glutamine and antibiotics (penicillin/streptomycin). Cells were allowed to attach overnight. Drugs were dissolved in cell culture medium and added to wells in 100-µL aliquots of 2× concentrated solutions, in triplicates. To control wells, 100 µL of the medium were added. Cells were incubated with the studied compounds for 72 h at 37 °C and 95%/5% or 90%/10% (HEK 293 cells) CO2 atmosphere. Then, 20-µL aliquots of MTT solution in PBS (4 mg/mL) were added to all wells and plates were incubated further for 3 h in 37 °C. Formazan crystals formed were dissolved in 100 µL of DMSO and the absorbance of the solutions was measured using a multiwell plate reader (Spark, Tecan, Männedorf, Switzerland) at λ = 540 nm. Cytotoxicity was determined compared to the drug-free control. All experiments were performed in triplicates.

Hep G2 = experiment: cells; type: cell-based, human; conditions: Hep G2, 72 h, MTT
Method: as §1, §2

LLC-PK1 = experiment: cells; type: cell-based, pig; conditions: LLC-PK1, 72 h, MTT
Method: as §1, §2

S. aureus ATCC 29213 = experiment: microbe, parasite or virus in culture; type: cell-based, Staphylococcus aureus; conditions: S. aureus ATCC 29213, MHB
Method: (§3) The antibacterial activity of TP10-NH2-based conjugates, as well as its constituents, was evaluated by microdilution assay in Mueller Hinton broth, MHB (Table 1). […] There are, however, some exceptions. […] Its activity against two other tested bacteria was somewhat lower though.
(§4) The antibacterial activity (bacteriostatic: MIC and bactericidal: MBC) of the tested compounds was determined in MHB (Mueller Hinton Broth, Sigma Aldrich, St. Louis, MO, USA) using a serial two-fold dilution method in 96-well microtiter plates according to CLSI recommendations, described in M07-A10 document. The exact conditions have been described previously. All experiments were performed in three replicates. The MIC90 and MIC50 values were defined as the concentrations of compounds tested that caused a 90% or 50% reduction of growth, respectively, comparing to the drug-free control.

[2] = system: S. epidermidis ATCC 12228; experiment: microbe, parasite or virus in culture; type: cell-based, Staphylococcus epidermidis; conditions: S. epidermidis ATCC 12228, MHB
Method: as §3, §4

E. coli ATCC 25922 = experiment: microbe, parasite or virus in culture; type: cell-based, Escherichia coli; conditions: E. coli ATCC 25922, MHB
Method: as §3, §4

P. aeruginosa ATCC 27853 = experiment: microbe, parasite or virus in culture; type: cell-based, Pseudomonas aeruginosa; conditions: P. aeruginosa ATCC 27853, MHB
Method: as §3, §4

[3] = system: Gram-positive and Gram-negative bacteria; type: cell-based; conditions: MHB, Gram-positive bacteria
Method: as §3, §4

[4] = biological target: T1, yeast DNA topoisomerase II (Saccharomyces cerevisiae, UniProt P06786); experiment: biochemical; type: biochemical; conditions: class; read-out: Topoisomerase II Inhibition
T1 construct: purchased Inspiralis (Norwich, UK)
T1 sequence (P06786 whole entry): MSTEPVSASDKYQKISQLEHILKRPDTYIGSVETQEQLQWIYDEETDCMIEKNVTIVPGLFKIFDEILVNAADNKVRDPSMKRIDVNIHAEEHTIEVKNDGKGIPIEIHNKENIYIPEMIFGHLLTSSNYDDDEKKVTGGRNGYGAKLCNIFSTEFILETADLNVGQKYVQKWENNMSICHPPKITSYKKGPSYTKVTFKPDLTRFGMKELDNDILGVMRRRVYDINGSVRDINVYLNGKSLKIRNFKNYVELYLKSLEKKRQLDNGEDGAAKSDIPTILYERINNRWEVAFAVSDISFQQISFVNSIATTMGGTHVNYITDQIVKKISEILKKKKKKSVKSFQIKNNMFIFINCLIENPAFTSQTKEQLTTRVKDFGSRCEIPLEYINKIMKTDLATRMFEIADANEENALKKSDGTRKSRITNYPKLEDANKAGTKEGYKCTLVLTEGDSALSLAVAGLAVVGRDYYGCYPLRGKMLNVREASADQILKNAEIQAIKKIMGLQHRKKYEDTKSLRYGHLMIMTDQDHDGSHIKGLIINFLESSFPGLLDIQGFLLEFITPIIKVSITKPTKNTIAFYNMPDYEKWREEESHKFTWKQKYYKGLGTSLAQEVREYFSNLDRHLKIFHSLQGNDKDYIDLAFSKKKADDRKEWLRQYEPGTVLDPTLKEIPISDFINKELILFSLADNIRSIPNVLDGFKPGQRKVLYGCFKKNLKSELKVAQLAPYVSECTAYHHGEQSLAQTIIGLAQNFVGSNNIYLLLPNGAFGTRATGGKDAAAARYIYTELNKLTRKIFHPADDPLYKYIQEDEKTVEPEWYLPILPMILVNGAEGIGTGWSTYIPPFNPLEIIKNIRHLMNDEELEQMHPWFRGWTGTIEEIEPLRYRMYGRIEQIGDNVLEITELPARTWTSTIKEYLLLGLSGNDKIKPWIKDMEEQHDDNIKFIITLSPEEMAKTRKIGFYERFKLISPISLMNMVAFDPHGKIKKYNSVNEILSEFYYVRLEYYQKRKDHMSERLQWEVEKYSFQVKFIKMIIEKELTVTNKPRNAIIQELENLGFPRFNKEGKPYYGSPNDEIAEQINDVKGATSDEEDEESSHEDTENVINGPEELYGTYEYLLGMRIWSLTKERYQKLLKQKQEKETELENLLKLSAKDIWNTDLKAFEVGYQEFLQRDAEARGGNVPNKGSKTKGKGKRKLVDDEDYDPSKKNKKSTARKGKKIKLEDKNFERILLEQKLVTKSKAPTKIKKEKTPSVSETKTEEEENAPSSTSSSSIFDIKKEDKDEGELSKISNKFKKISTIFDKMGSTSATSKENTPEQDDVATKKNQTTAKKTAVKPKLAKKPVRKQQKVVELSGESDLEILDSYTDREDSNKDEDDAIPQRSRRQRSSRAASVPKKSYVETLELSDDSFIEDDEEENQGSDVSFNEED

HEK 293 [5] = experiment: ROS generation (CM-H2DCFDA, flow cytometry); type: cell-based, human; conditions: for ROS HEK 293: positive cells in 24 h, class
Method: (§5) In the positive controls treated with H2O2, the fraction of ROS-positive cells exceeded 75%. […] Strikingly, in HL-60, a biologically significant effect was observed almost immediately (after 15 min of incubation). The same was noted after 1 h in the HEK 293 cell line. […] Similarly, conjugates 4 and 5 generated ROS at the low level (less than 15% for HL-60 and less than 20% for HEK 293) (manuscript in preparation). […] For HL-60, the critical level of ROS was noted after 15 min of incubation.
(§6) ROS generation activity was evaluated as described previously. Briefly, HEK 293 cells were seeded on 35-mm Petri dishes in the amount of 15,000 cells per plate for 24 h in DMEM medium. […] Positive controls contained 250 µM H2O2, while negative controls were without any additions. After 0.5, 2.5, 5.5, and 24 h of incubation at 37 °C, the CM-H2DCFDA molecular probe (Thermo Fischer Scientific, Waltham, USA) was added to the plates and incubation was continued for another 0.5 h. The HEK 293 cells were detached with 0.05% trypsin solution in PBS and HBSS (Hank’s Balanced Salt Solution) and suspended in fresh DMEM medium. All samples were additionally stained with 7-AAD (7-aminoactinomycin D, 0.8 µg/mL) and immediately analysed with a Guava easyCyte flow cytometer (Merc, Burlington, USA). The determinations were performed in triplicates.

HL-60 = experiment: ROS generation (CM-H2DCFDA, flow cytometry); type: cell-based, human; conditions: for ROS HL-60: positive cells in 24 h, class
Method: as §5, §6

[6] = system: C. albicans Δopt1Δopt5Δptr2Δptr22
human red blood cells = experiment: Hemolysis assay; conditions: 1 h, 37 °C

| Structure (SMILES) | IC50 (HEK 293 [1]) [µM] | IC50 (Hep G2) [µM] | IC50 (LLC-PK1) [µM] | MIC50 (S. aureus ATCC 29213) [µM] | MIC90 (S. aureus ATCC 29213) [µM] | MIC50 [2] [µM] | MIC90 [2] [µM] | MIC50 (E. coli ATCC 25922) [µM] | MIC90 (E. coli ATCC 25922) [µM] | MIC50 (P. aeruginosa ATCC 27853) [µM] | MIC90 (P. aeruginosa ATCC 27853) [µM] | IC50 [4] [µM] | ROS level (positive cells) (HEK 293 [5]; HEK 293) | ROS HEK 293 (HEK 293 [5]) | MIC50 (C. albicans SC 5314) [µM] | MIC50 [6] [µM] | MIC90 [6] [µM] | MIC50 (C. albicans Gu4) [µM] | MIC50 (C. glabrata DSM 11226) [µM] | MIC50 (C. krusei DSM 6128) [µM] | other results |
| --- | --- | --- | --- | --- | --- | --- | --- | --- | --- | --- | --- | --- | --- | --- | --- | --- | --- | --- | --- | --- | --- |
| CC[C@H](C)[C@H](NC(=O)[C@H](CCCCN)NC(=O)[C@H](CCCCN)NC(=O)[C@H](C)NC(=O)[C@H](CC(C)C)NC(=O)[C@H](C)NC(=O)[C@H](C)NC(=O)[C@H](CC(C)C)NC(=O)[C@H](C)NC(=O)[C@H](CCCCN)NC(=O)[C@H](CC(C)C)NC(=O)[C@H](CC(N)=O)NC(=O)[C@@H](NC(=O)[C@H](CCCCN)NC(=O)CNC(=O)[C@H](CC(C)C)NC(=O)[C@H](CC(C)C)NC(=O)[C@H](Cc1ccc(O)cc1)NC(=O)CNC(=O)[C@H](C)NC(=O)[C@@H](N)CS)[C@@H](C)CC)C(=O)N[C@@H](CC(C)C)C(N)=O [CTP10-NH2] | 19.5 ± 2.93 | 60 ± 5.75 | 51.6 ± 8.66 | – | – | – | – | – | – | – | – | – | – | – | – | – | – | – | – | – | – |
| CC[C@H](C)[C@H](NC(=O)[C@H](CCCCN)NC(=O)[C@H](CCCCN)NC(=O)[C@H](C)NC(=O)[C@H](CC(C)C)NC(=O)[C@H](C)NC(=O)[C@H](C)NC(=O)[C@H](CC(C)C)NC(=O)[C@H](C)NC(=O)[C@H](CCCCN)NC(=O)[C@H](CC(C)C)NC(=O)[C@H](CC(N)=O)NC(=O)[C@@H](NC(=O)[C@H](CCCCN)NC(=O)CNC(=O)[C@H](CC(C)C)NC(=O)[C@H](CC(C)C)NC(=O)[C@H](Cc1ccc(O)cc1)NC(=O)CNC(=O)[C@H](C)NC(=O)c1cn2c3c(c(N4CCN(C)CC4)c(F)cc3c1=O)OC[C@@H]2C)[C@@H](C)CC)C(=O)N[C@@H](CC(C)C)C(N)=O [Compound 4, LVX-TP10-NH2] | 22.5 ± 9.7 | 72.6 ± 13 | 52.9 ± 8.15 | 1.6 (≈ 4.04 µg/mL) | 1.6 (≈ 4.04 µg/mL) | 1.6 (≈ 4.04 µg/mL) | 1.6 (≈ 4.04 µg/mL) | 50 (≈ 126 µg/mL) | 50 (≈ 126 µg/mL) | 100 (≈ 253 µg/mL) | 100 (≈ 253 µg/mL) | < 10 | less than 20% | ++ (++ <10% positive cells in 24 h) | 50 (≈ 126 µg/mL) | 100 (≈ 253 µg/mL) | 100 (≈ 253 µg/mL) | 25 (≈ 63.1 µg/mL) | >200 | 100 (≈ 253 µg/mL) | MIC90 against Gram-positive bacteria [3]: 1.6 µM (≈ 4.04 µg/mL); ROS level (positive cells) (HL-60; HL-60): less than 15%; ROS HL-60 (HL-60): + (+ <15% positive cells in 24 h); MIC90 (C. albicans SC 5314): 100 µM (≈ 253 µg/mL) |
| CC[C@H](C)[C@H](NC(=O)[C@H](CCCCN)NC(=O)[C@H](CCCCN)NC(=O)[C@H](C)NC(=O)[C@H](CC(C)C)NC(=O)[C@H](C)NC(=O)[C@H](C)NC(=O)[C@H](CC(C)C)NC(=O)[C@H](C)NC(=O)[C@H](CCCCN)NC(=O)[C@H](CC(C)C)NC(=O)[C@H](CC(N)=O)NC(=O)[C@@H](NC(=O)[C@H](CCCCN)NC(=O)CNC(=O)[C@H](CC(C)C)NC(=O)[C@H](CC(C)C)NC(=O)[C@H](Cc1ccc(O)cc1)NC(=O)CNC(=O)[C@H](C)NC(=O)[C@@H](N)CSSC[C@H](NC(=O)c1cn2c3c(c(N4CCN(C)CC4)c(F)cc3c1=O)OC[C@@H]2C)C(=O)O)[C@@H](C)CC)C(=O)N[C@@H](CC(C)C)C(N)=O [Compound 5, LVXC-S-S-CTP10-NH2] | 41.3 ± 1.1 | 102 ± 4.9 | 105 ± 15.6 | 6.25 (≈ 17.2 µg/mL) | 6.25 (≈ 17.2 µg/mL) | 3.125 (≈ 8.59 µg/mL) | 3.125 (≈ 8.59 µg/mL) | 3.125 (≈ 8.59 µg/mL) | 3.125 (≈ 8.59 µg/mL) | 12.5 (≈ 34.3 µg/mL) | 25 (≈ 68.7 µg/mL) | < 50 | less than 20% | ++ (++ <10% positive cells in 24 h) | 12.5 (≈ 34.3 µg/mL) | 12.5 (≈ 34.3 µg/mL) | 25 (≈ 68.7 µg/mL) | 12.5 (≈ 34.3 µg/mL) | >200 | 50 (≈ 137 µg/mL) | ROS level (positive cells) (HL-60; HL-60): less than 15%; ROS HL-60 (HL-60): ++ (++ <10% positive cells in 24 h); MIC90 (C. albicans SC 5314): 25 µM (≈ 68.7 µg/mL); MHC50 (concentration causing 50% hemolysis) (human red blood cells): 140 µg/mL; MHC50 (concentration causing 50% hemolysis) (human red blood cells; converted from μg/mL): ~ 51 μM |
| CC[C@H](C)[C@H](NC(=O)[C@H](CCCCN)NC(=O)[C@H](CCCCN)NC(=O)[C@H](C)NC(=O)[C@H](CC(C)C)NC(=O)[C@H](C)NC(=O)[C@H](C)NC(=O)[C@H](CC(C)C)NC(=O)[C@H](C)NC(=O)[C@H](CCCCN)NC(=O)[C@H](CC(C)C)NC(=O)[C@H](CC(N)=O)NC(=O)[C@@H](NC(=O)[C@H](CCCCN)NC(=O)CNC(=O)[C@H](CC(C)C)NC(=O)[C@H](CC(C)C)NC(=O)[C@H](Cc1ccc(O)cc1)NC(=O)CNC(=O)[C@H](C)NC(=O)[C@@H](N)CSSC[C@H](N)C(=O)N1CCN(c2cc3c(cc2F)c(=O)c(C(=O)O)cn3C2CC2)CC1)[C@@H](C)CC)C(=O)N[C@@H](CC(C)C)C(N)=O [Compound 6, CIPC-S-S-CTP10-NH2] | 20.8 ± 10.9 | 37.7 ± 2.84 | 21.3 ± 1.33 | 3.125 (≈ 8.49 µg/mL) | 3.125 (≈ 8.49 µg/mL) | 6.25 (≈ 17 µg/mL) | 6.25 (≈ 17 µg/mL) | 6.25 (≈ 17 µg/mL) | 6.25 (≈ 17 µg/mL) | >100 | >100 | – | – | ++ (++ <10% positive cells in 24 h) | 50 (≈ 136 µg/mL) | 50 (≈ 136 µg/mL) | 50 (≈ 136 µg/mL) | 25 (≈ 67.9 µg/mL) | >200 | >200 | ROS induction (HEK 293 [5]; HEK 293): did not induce a significant level of ROS; Incubation time at which significant/critical ROS level was noted (HL-60; HL-60): 15 min |
